Measurements taken from patent US20100016590A1, “NILOTINIB INTERMEDIATES AND PREPARATION THEREOF” (TEVA PHARMACEUTICAL INDUSTRIES LTD., priority 2008, published 2010).
Structures can show the parent of a compound that is named as a salt.

Test: Humidifying Nilotinib.3HCl: water content measured at regular intervals in a closed glass container with saturated potassium chloride solution
Format: physicochemical
Conditions: for water content (M/C) After 72 Hrs: after 72 Hrs in closed container over saturated potassium chloride solution; for water content (M/C) After 72 Hrs / water content (M/C) After 96 Hrs / M/C Initial (water content): tri hydrochloride; for water content (M/C) After 96 Hrs: after 96 Hrs in closed container over saturated potassium chloride solution; for M/C Initial (water content): before humidifying
Method: Weight 4.0 gms (having HPLC purity is 90%) Crude Nilotinib Tri hydrochloride in dry Petri dish and placed in to closed glass container containing (saturated Potassium chloride solution) at 20 to 25 temperature, the water content of crude Nilotinib was measured by regular interval.
Weight 4.0 gms (having HPLC purity is 97.91%) Pure Nilotinib Tri hydrochloride in dry Petri dish and placed in to closed glass container containing (saturated Potassium chloride solution) at 20 to 25 temperature, the water content of Pure Nilotinib was measured by regular interval.

Cc1cn(-c2cc(NC(=O)c3ccc(C)c(Nc4nccc(-c5cccnc5)n4)c3)cc(C(F)(F)F)c2)cn1 [Nilotinib.3HCl (Pure), 3-(4-(pyridin-3-yl)pyrimidin-2-ylamino)-N-(3-(trifluoromethyl)-5-(4-methyl-1H-imidazol-1-yl)phenyl)-4-methylbenzamide tri hydrochloride]
water content (M/C) After 72 Hrs (20 to 25 temperature): 14.90% | water content (M/C) After 96 Hrs (20 to 25 temperature): 14.41% | M/C Initial (water content): 4.55%

Cc1cn(-c2cc(NC(=O)c3ccc(C)c(Nc4nccc(-c5cccnc5)n4)c3)cc(C(F)(F)F)c2)cn1 [Nilotinib.3HCl (crude), 3-(4-(pyridin-3-yl)pyrimidin-2-ylamino)-N-(3-(trifluoromethyl)-5-(4-methyl-1H-imidazol-1-yl)phenyl)-4-methylbenzamide tri hydrochloride]
water content (M/C) After 24 Hrs (after 24 Hrs in closed container over saturated potassium chloride solution, 20 to 25 temperature): 16.33% | water content (M/C) After 48 Hrs (after 48 Hrs in closed container over saturated potassium chloride solution, 20 to 25 temperature): 16.89% | water content (M/C) After 72 Hrs (20 to 25 temperature): 16.40% | water content (M/C) After 96 Hrs (20 to 25 temperature): 16.36% | water content (M/C) After 120 Hrs (after 120 Hrs in closed container over saturated potassium chloride solution, 20 to 25 temperature): 16.53% | M/C Initial (water content): 4.31%
